Laboratory results from patent US10597380B2, “Pyridazinone-based broad spectrum anti-influenza inhibitors” (Hoffmann-La Roche Inc., priority 2017, dated 2020).

System: Influenza A/WSN/33-Luciferase virus
Experiment: microbe, parasite or virus in culture
Assay type: cell-based
Details: A549, 72 h, luciferase signal three days later, read-out: IC50 antiviral activity (Luciferase reporter assay)

SMILES	IC50
COCCOc1ccc2c(Nc3cccn(C)c3=O)nn(-c3ccc(OC(F)(F)F)cc3)c(=O)c2c1 [Example 137, 7-(2-Methoxyethoxy)-4-[(1-methyl-2-oxo-3-pyridyl)amino]-2-[4-(trifluoromethoxy)phenyl]phthalazin-1-one]	136 nM
CCOC(=O)COCCn1cccc(Nc2nn(-c3ccc(OC(F)(F)F)cc3)c(=O)c3c2CCC3)c1=O [Example 39, ethyl 2-[2-[2-oxo-3-[[4-oxo-3-[4-(trifluoromethoxy)phenyl]-6,7-dihydro-5H-cyclopenta[d]pyridazin-1-yl]amino]-1-pyridyl]ethoxy]acetate]	230 nM
CCOC(=O)COCCn1cccc(Nc2nn(-c3ccc(OC(F)(F)F)cc3)c(=O)c3ccccc23)c1=O [Example 5, ethyl 2-[2-[2-oxo-3-[[4-oxo-3-[4-(trifluoromethoxy)phenyl]phthalazin-1-yl]amino]-1-pyridyl]ethoxy]acetate]	485 nM
O=c1c(Nc2nn(-c3ccc(OC(F)(F)F)cc3)c(=O)c3ccccc23)cccn1CCN1CCOCC1 [Example 76, 4-[[1-(2-morpholinoethyl)-2-oxo-3-pyridyl]amino]-2-[4-(trifluoromethoxy)phenyl]phthalazin-1-one]	34 nM
COCCOc1ccc(-n2nc(Nc3cccn(C)c3=O)c3ccccc3c2=O)cc1 [Example 13, 2-[4-(2-methoxyethoxy)phenyl]-4-[(1-methyl-2-oxo-3-pyridyl)amino]phthalazin-1-one]	1510 nM
Cc1ccc(Nc2nn(-c3ccc(OC(F)(F)F)cc3)c(=O)c3ccccc23)c(=O)n1C [Example 64, 4-[(1,6-dimethyl-2-oxo-3-pyridyl)amino]-2-[4-(trifluoromethoxy)phenyl]phthalazin-1-one]	355 nM
CCc1ccc2c(Nc3cccn(C)c3=O)nn(-c3ccc(C(C)(C)C)cc3)c(=O)c2c1 [Example 20, 2-(4-tert-butylphenyl)-7-ethyl-4-[(1-methyl-2-oxo-3-pyridyl)amino]phthalazin-1-one]	4 nM
CN1CCN(CCCn2cccc(Nc3nn(-c4ccc(OC(F)(F)F)cc4)c(=O)c4c3CCC4)c2=O)CC1 [Example 48, 1-[[1-[3-(4-methylpiperazin-1-yl)propyl]-2-oxo-3-pyridyl]amino]-3-[4-(trifluoromethoxy)phenyl]-6,7-dihydro-5H-cyclopenta[d]pyridazin-4-one]	18 nM
CN(C)C(=O)CCCn1cccc(Nc2nn(-c3ccc(OC(F)(F)F)cc3)c(=O)c3c2CCC3)c1=O [Example 106, N,N-dimethyl-4-[2-oxo-3-[[4-oxo-3-[4-(trifluoromethoxy)phenyl]-6,7-dihydro-5H-cyclopenta[d]pyridazin-1-yl]amino]-1-pyridyl]butanamide]	14 nM
CC(C)(Cn1cccc(Nc2nn(-c3ccc(OC(F)(F)F)cc3)c(=O)c3ccccc23)c1=O)C(N)=O [Example 101, 2,2-dimethyl-3-[2-oxo-3-[[4-oxo-3-[4-(trifluoromethoxy)phenyl]phthalazin-1-yl]amino]-1-pyridyl]propanamide]	109 nM
COc1ccc(-n2nc(Nc3cccn(C)c3=O)c3c(c2=O)CCC3)cn1 [Example 56, 3-(6-methoxy-3-pyridyl)-1-[(1-methyl-2-oxo-3-pyridyl)amino]-6,7-dihydro-5H-cyclopenta[d]pyridazin-4-one]	278 nM
O=c1c(Nc2nn(-c3ccc(OC(F)(F)F)cc3)c(=O)c3c2CCC3)cncn1CCO [Example 47, 1-[[1-(2-hydroxyethyl)-6-oxo-pyrimidin-5-yl]amino]-3-[4-(trifluoromethoxy)phenyl]-6,7-dihydro-5H-cyclopenta[d]pyridazin-4-one]	71 nM
Cn1cncc(Nc2nn(-c3ccc(OC(F)(F)F)cc3)c(=O)c3ccccc23)c1=O [Example 66, 4-[(1-methyl-6-oxo-pyrimidin-5-yl)amino]-2-[4-(trifluoromethoxy)phenyl]phthalazin-1-one]	36 nM
N[C@H]1CO[C@H](Cn2cccc(Nc3nn(-c4ccc(OC(F)(F)F)cc4)c(=O)c4c3CCC4)c2=O)OC1 [Example 170, trans-1-[[1-[(5-Amino-1,3-dioxan-2-yl)methyl]-2-oxo-3-pyridyl]amino]-3-[4-(trifluoromethoxy)phenyl]-6,7-dihydro-5H-cyclopenta[d]pyridazin-4-one]	83 nM
Cn1cccc(Nc2nn(-c3ccc(OC(F)(F)F)cc3)c(=O)c3cc(C(N)=O)ccc23)c1=O [Example 139, 1-[(1-Methyl-2-oxo-3-pyridyl)amino]-4-oxo-3-[4-(trifluoromethoxy)phenyl]phthalazine-6-carboxamide]	62 nM
CNC(=O)N1CCc2c(Nc3cccn(C)c3=O)nn(-c3ccc(OC(F)(F)F)cc3)c(=O)c2C1 [Example 161, N-Methyl-1-[(1-methyl-2-oxo-3-pyridyl)amino]-4-oxo-3-[4-(trifluoromethoxy)phenyl]-7,8-dihydro-5H-pyrido[3,4-d]pyridazine-6-carboxamide]	112 nM
CN(C)CCn1cncc(Nc2nn(-c3ccc(OC(F)(F)F)cc3)c(=O)c3ccccc23)c1=O [Example 80, 4-[[1-[2-(dimethylamino)ethyl]-6-oxo-pyrimidin-5-yl]amino]-2-[4-(trifluoromethoxy)phenyl]phthalazin-1-one]	68 nM

SMILES	IC50
CNCCn1cncc(Nc2nn(-c3ccc(OC(F)(F)F)cc3)c(=O)c3c2CCC3)c1=O [Example 128, 1-[[1-[2-(Methylamino)ethyl]-6-oxo-pyrimidin-5-yl]amino]-3-[4-(trifluoromethoxy)phenyl]-6,7-dihydro-5H-cyclopenta[d]pyridazin-4-one]	92 nM
COC(=O)C(C)(C)Cn1cccc(Nc2nn(-c3ccc(OC(F)(F)F)cc3)c(=O)c3ccccc23)c1=O [Example 4, methyl 2,2-dimethyl-3-[2-oxo-3-[[4-oxo-3-[4-(trifluoromethoxy)phenyl]phthalazin-1-yl]amino]-1-pyridyl]propanoate]	489 nM
Cn1cccc(Nc2nn(-c3ccc(C(F)(F)F)cc3)c(=O)c3c2CCC3)c1=O [Example 60, 1-[(1-methyl-2-oxo-3-pyridyl)amino]-3-[4-(trifluoromethyl)phenyl]-6,7-dihydro-5H-cyclopenta[d]pyridazin-4-one]	11 nM
CC(C)NC(=O)Cn1cccc(Nc2nn(-c3ccc(OC(F)(F)F)cc3)c(=O)c3ccccc23)c1=O [Example 90, N-isopropyl-2-[2-oxo-3-[[4-oxo-3-[4-(trifluoromethoxy)phenyl]phthalazin-1-yl]amino]-1-pyridyl]acetamide]	162 nM
COC(=O)Cn1cccc(Nc2nn(-c3ccc(OC(F)(F)F)cc3)c(=O)c3c2CCCC3)c1=O [Example 24, methyl 2-[2-oxo-3-[[4-oxo-3-[4-(trifluoromethoxy)phenyl]-5,6,7,8-tetrahydrophthalazin-1-yl]amino]-1-pyridyl]acetate]	22 nM
CCOc1ccc(-n2nc(Nc3cccn(C)c3=O)c3c(c2=O)CCC3)cn1 [Example 55, 3-(6-ethoxy-3-pyridyl)-1-[(1-methyl-2-oxo-3-pyridyl)amino]-6,7-dihydro-5H-cyclopenta[d]pyridazin-4-one]	303 nM
O=C(O)CCCn1cccc(Nc2nn(-c3ccc(OC(F)(F)F)cc3)c(=O)c3ccccc23)c1=O [Example 110, 4-[2-oxo-3-[[4-oxo-3-[4-(trifluoromethoxy)phenyl]phthalazin-1-yl]amino]-1-pyridyl]butanoic acid]	482 nM
CNC(=O)CCn1cccc(Nc2nn(-c3ccc(OC(F)(F)F)cc3)c(=O)c3ccccc23)c1=O [Example 95, N-methyl-3-[2-oxo-3-[[4-oxo-3-[4-(trifluoromethoxy)phenyl]phthalazin-1-yl]amino]-1-pyridyl]propanamide]	102 nM
O=C(O)C1CN(CCn2cccc(Nc3nn(-c4ccc(OC(F)(F)F)cc4)c(=O)c4c3CCC4)c2=O)CCO1 (stereo not drawn) [Example 122, 4-[2-[2-oxo-3-[[4-oxo-3-[4-(trifluoromethoxy)phenyl]-6,7-dihydro-5H-cyclopenta[d]pyridazin-1-yl]amino]-1-pyridyl]ethyl]morpholine-2-carboxylic acid]	3710 nM
COC(=O)CCCn1cccc(Nc2nn(-c3ccc(OC(F)(F)F)cc3)c(=O)c3c2CCC3)c1=O [Example 38, methyl 4-[2-oxo-3-[[4-oxo-3-[4-(trifluoromethoxy)phenyl]-6,7-dihydro-5H-cyclopenta[d]pyridazin-1-yl]amino]-1-pyridyl]butanoate]	23 nM
Cn1cccc(Nc2nn(-c3ccc(OC(F)(F)F)cc3)c(=O)c3cc(CO)ccc23)c1=O [Example 141, 7-(hydroxymethyl)-4-[(1-methyl-2-oxo-3-pyridyl)amino]-2-[4-(trifluoromethoxy)phenyl]phthalazin-1-one]	12 nM
Cn1cccc(Nc2nn(-c3ccc(OC(F)(F)F)cc3)c(=O)c3c2CCCC3)c1=O [Example 21, 4-[(1-methyl-2-oxo-3-pyridyl)amino]-2-[4-(trifluoromethoxy)phenyl]-5,6,7,8-tetrahydrophthalazin-1-one]	5 nM
O=c1c(Nc2nn(-c3ccc(OC(F)(F)F)cc3)c(=O)c3c2CCC3)cccn1CCn1ccnc1 [Example 40, 1-[[1-(2-imidazol-1-ylethyl)-2-oxo-3-pyridyl]amino]-3-[4-(trifluoromethoxy)phenyl]-6,7-dihydro-5H-cyclopenta[d]pyridazin-4-one]	100 nM
Cn1cccc(Nc2nn(-c3ccc(OC(F)(F)F)cc3)c(=O)c3c2CCOC3)c1=O [Example 62, 1-[(1-methyl-2-oxo-3-pyridyl)amino]-3-[4-(trifluoromethoxy)phenyl]-7,8-dihydro-5H-pyrano[3,4-d]pyridazin-4-one]	186 nM
CC(=O)N1CCc2c(Nc3cccn(C)c3=O)nn(-c3ccc(OC(F)(F)F)cc3)c(=O)c2C1 [Example 148, 6-Acetyl-1-[(1-methyl-2-oxo-3-pyridyl)amino]-3-[4-(trifluoromethoxy)phenyl]-7,8-dihydro-5H-pyrido[3,4-d]pyridazin-4-one]	19 nM
COc1ccc2c(Nc3cccn(C)c3=O)nn(-c3ccc(OC(F)(F)F)cc3)c(=O)c2c1 [Example 16, 7-methoxy-4-[(1-methyl-2-oxo-3-pyridyl)amino]-2-[4-(trifluoromethoxy)phenyl]phthalazin-1-one]	12 nM
